Measurements: patent US20240239861A1, “GLUCAGON-RECEPTOR SELECTIVE POLYPEPTIDES AND METHODS OF USE THEREOF” (i2O Therapeutics, Inc., priority 2016, published 2024)
Where two headings read alike, the source gives them in different places. *1 amine or outer side, *2 acyl side, *3 side chain or, on linkers, in order; H or OH if unused. Where a SMILES comes first, the peptide text is derived from it. Side-chain parts run from the residue outwards. [ ]: non-standard residue; d: D form. The star is where a group is joined. γGlu = O=C(O)[C@H](CCC(=O)[*:2])N[*:1]; Palmitoyl = CCCCCCCCCCCCCCCC(=O)*; Aib = CC(C)(N)C(=O)O

Key:
human GLP-1R = human GLP-1R (Homo sapiens, UniProt P43220); test: Peptide-receptor mediated cAMP accumulation (LANCE Ultra cAMP) in CHO-K1 cells transfected with human GLP-1R; assay type: cell-based
human GCGR = human GCGR (Homo sapiens, UniProt P47871); test: Peptide-receptor mediated cAMP accumulation (LANCE Ultra cAMP) in CHO-K1 cells transfected with human GCGR; assay type: cell-based
[1] = hGLP1 pEC50 (cAMP mean (n = 3): 11 point curve starting at 1 nM, Table 3)
[2] = Table 7, GLP-1R, read-out: GLP-1R pEC50 (converted)
[3] = read-out: GluR pEC50 (converted)

human GLP-1R, sequence (P43220 24-463): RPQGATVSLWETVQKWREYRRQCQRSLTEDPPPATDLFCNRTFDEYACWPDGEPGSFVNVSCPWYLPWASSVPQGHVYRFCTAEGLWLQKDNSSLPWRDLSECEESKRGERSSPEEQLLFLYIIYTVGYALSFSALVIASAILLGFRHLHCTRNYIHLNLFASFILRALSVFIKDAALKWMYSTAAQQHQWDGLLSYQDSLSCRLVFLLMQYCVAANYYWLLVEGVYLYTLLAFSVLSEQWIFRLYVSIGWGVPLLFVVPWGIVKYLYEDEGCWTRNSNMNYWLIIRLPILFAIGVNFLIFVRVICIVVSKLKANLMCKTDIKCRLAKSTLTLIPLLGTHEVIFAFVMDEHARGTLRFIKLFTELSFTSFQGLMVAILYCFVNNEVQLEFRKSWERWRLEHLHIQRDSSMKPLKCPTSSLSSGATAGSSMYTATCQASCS
human GCGR, sequence (P47871 26-477): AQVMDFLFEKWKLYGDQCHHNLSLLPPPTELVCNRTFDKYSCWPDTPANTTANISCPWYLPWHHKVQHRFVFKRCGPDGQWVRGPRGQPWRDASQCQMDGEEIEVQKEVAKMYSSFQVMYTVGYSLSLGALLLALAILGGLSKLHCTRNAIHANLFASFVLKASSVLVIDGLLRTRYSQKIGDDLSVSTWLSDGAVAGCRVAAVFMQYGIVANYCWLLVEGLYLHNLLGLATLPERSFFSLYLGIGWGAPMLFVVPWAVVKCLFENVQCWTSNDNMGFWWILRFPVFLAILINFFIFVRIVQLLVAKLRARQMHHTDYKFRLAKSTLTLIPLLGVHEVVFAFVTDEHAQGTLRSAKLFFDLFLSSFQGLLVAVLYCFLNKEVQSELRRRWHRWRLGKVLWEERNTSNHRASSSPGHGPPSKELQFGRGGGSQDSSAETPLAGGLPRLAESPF

EC50 (human GLP-1R; [1]) [nM] | EC50 (human GCGR; Table 3) [nM] | Structure (SMILES) | EC50 (human GLP-1R; [2]) [nM] | EC50 (human GCGR; [3]) [nM]
> 1 | 0.0631 | CC(C)C[C@H](NC(=O)[C@H](Cc1ccc(O)cc1)NC(=O)[C@H](CCCCN)NC(=O)[C@H](CO)NC(=O)[C@H](Cc1ccc(O)cc1)NC(=O)[C@H](CC(=O)O)NC(=O)[C@H](CO)NC(=O)[C@@H](NC(=O)[C@H](Cc1ccccc1)NC(=O)[C@@H](NC(=O)CNC(=O)[C@H](Cc1c[nH]cn1)NC(=O)[C@H](CO)NC(=O)[C@@H](N)Cc1ccc(O)cc1)[C@@H](C)O)[C@@H](C)O)C(=O)N[C@@H](CC(=O)O)C(=O)N[C@@H](CO)C(=O)N[C@@H](C)C(=O)N[C@@H](CCCNC(=N)N)C(=O)N[C@@H](C)C(=O)N[C@@H](CCC(N)=O)C(=O)N[C@@H](CCC(=O)O)C(=O)N[C@@H](Cc1ccccc1)C(=O)N[C@H](C(=O)N[C@@H](CCCCN)C(=O)N[C@@H](Cc1c[nH]c2ccccc12)C(=O)N[C@@H](CC(C)C)C(=O)N[C@@H](CCC(=O)O)C(=O)N[C@@H](CC(=O)O)C(=O)N[C@@H](CCC(=O)O)C(=O)N1CCC[C@H]1C(=O)N[C@@H](CCCCN)C(=O)N[C@@H](CO)C(=O)N[C@@H](CCCCN)C(=O)N[C@@H](CO)C(=O)N1CCC[C@H]1C(=O)N1CCC[C@H]1C(=O)N1CCC[C@H]1C(=O)N[C@@H](CO)C(=O)O)[C@@H](C)O [Compound A83] (H-YSHGTFTSDYSKYLDSARAQEFTKWLEDEPKSKSPPPS-OH; N-terminus assumed) | – | –
> 1 | 0.398 | CC(C)C[C@H](NC(=O)[C@H](Cc1ccc(O)cc1)NC(=O)[C@H](CCCCN)NC(=O)[C@H](CO)NC(=O)[C@H](Cc1ccc(O)cc1)NC(=O)[C@H](CC(=O)O)NC(=O)[C@H](CO)NC(=O)[C@@H](NC(=O)[C@H](Cc1ccccc1)NC(=O)[C@@H](NC(=O)CNC(=O)[C@H](Cc1c[nH]cn1)NC(=O)[C@H](CO)NC(=O)[C@@H](N)Cc1ccc(O)cc1)[C@@H](C)O)[C@@H](C)O)C(=O)N[C@@H](CC(=O)O)C(=O)N[C@@H](CO)C(=O)N[C@@H](C)C(=O)N[C@@H](CCCNC(=N)N)C(=O)N[C@@H](C)C(=O)N[C@@H](CCC(N)=O)C(=O)N[C@@H](CCC(=O)O)C(=O)N[C@@H](Cc1ccccc1)C(=O)N[C@H](C(=O)N[C@@H](CCCCN)C(=O)N[C@@H](Cc1c[nH]cn1)C(=O)N[C@@H](CC(C)C)C(=O)N[C@@H](CCC(=O)O)C(=O)N[C@@H](CC(=O)O)C(=O)N[C@@H](CCC(=O)O)C(=O)N1CCC[C@H]1C(=O)N[C@@H](CCCCN)C(=O)N[C@@H](CO)C(=O)N[C@@H](CCCCN)C(=O)N[C@@H](CO)C(=O)N1CCC[C@H]1C(=O)N1CCC[C@H]1C(=O)N1CCC[C@H]1C(=O)N[C@@H](CO)C(=O)O)C(C)C [Compound A84] (H-YSHGTFTSDYSKYLDSARAQEFVKHLEDEPKSKSPPPS-OH; N-terminus assumed) | – | –
> 1 | 0.0126 | CC(C)C[C@H](NC(=O)[C@H](Cc1ccc(O)cc1)NC(=O)[C@H](CCCCN)NC(=O)[C@H](CO)NC(=O)[C@H](Cc1ccc(O)cc1)NC(=O)[C@H](CC(=O)O)NC(=O)[C@H](CO)NC(=O)[C@@H](NC(=O)[C@H](Cc1ccccc1)NC(=O)[C@@H](NC(=O)CNC(=O)[C@H](CCC(N)=O)NC(=O)[C@H](CO)NC(=O)[C@@H](N)Cc1c[nH]c2ccccc12)[C@@H](C)O)[C@@H](C)O)C(=O)N[C@@H](CC(=O)O)C(=O)NC(C)(C)C(=O)N[C@@H](CCCCN)C(=O)N[C@@H](C)C(=O)N[C@@H](C)C(=O)N[C@@H](CCC(N)=O)C(=O)N[C@@H](CCC(=O)O)C(=O)N[C@@H](Cc1ccccc1)C(=O)N[C@H](C(=O)NC(C)(C)C(=O)N[C@@H](Cc1c[nH]c2ccccc12)C(=O)N[C@@H](CC(C)C)C(=O)N[C@@H](CCC(=O)O)C(=O)N[C@@H](CC(=O)O)C(=O)N[C@@H](CCC(=O)O)C(=O)N1CCC[C@H]1C(=O)N[C@@H](CO)C(=O)N[C@@H](CO)C(=O)NCC(=O)N[C@@H](CCCCN)C(=O)N1CCC[C@H]1C(=O)N1CCC[C@H]1C(=O)N1CCC[C@H]1C(=O)N[C@@H](CO)C(=O)O)C(C)C [Compound A93] (H-WSQGTFTSDYSKYLD[Aib]KAAQEFV[Aib]WLEDEPSSGKPPPS-OH; N-terminus assumed) | – | –
– | – | CCCCCCCCCCCCCCCC(=O)N[C@@H](CCC(=O)NCCCC[C@H](NC(=O)[C@@H](NC(=O)[C@H](Cc1ccccc1)NC(=O)[C@H](CCC(=O)O)NC(=O)[C@H](CCC(N)=O)NC(=O)[C@H](C)NC(=O)[C@H](Cc1ccc(O)cc1)NC(=O)[C@H](CCCCN)NC(=O)C(C)(C)NC(=O)[C@H](CC(=O)O)NC(=O)[C@H](CC(C)C)NC(=O)[C@H](Cc1ccc(O)cc1)NC(=O)[C@H](CCCCN)NC(=O)[C@H](CO)NC(=O)[C@H](Cc1ccc(O)cc1)NC(=O)[C@H](CC(=O)O)NC(=O)[C@H](CO)NC(=O)[C@@H](NC(=O)[C@H](Cc1ccccc1)NC(=O)[C@@H](NC(=O)CNC(=O)[C@H](Cc1c[nH]cn1)NC(=O)[C@H](CO)NC(=O)[C@@H](N)Cc1ccc(O)cc1)[C@@H](C)O)[C@@H](C)O)C(C)C)C(=O)N[C@@H](Cc1c[nH]c2ccccc12)C(=O)N[C@@H](CC(C)C)C(=O)N[C@@H](CCC(=O)O)C(=O)N[C@@H](CC(=O)O)C(=O)N[C@@H](CCC(=O)O)C(=O)N1CCC[C@H]1C(=O)N[C@@H](CO)C(=O)N[C@@H](CO)C(=O)NCC(=O)N[C@@H](C)C(=O)N1CCC[C@H]1C(=O)N1CCC[C@H]1C(=O)N1CCC[C@H]1C(=O)N[C@@H](CO)C(=O)O)C(=O)O [Compound B2] | > 1000 | 0.00794
– | – | CCCCCCCCCCCCCCCC(=O)N[C@@H](CCC(=O)NCCCC[C@H](NC(=O)[C@H](CC(=O)O)NC(=O)[C@H](CO)NC(=O)[C@@H](NC(=O)[C@H](Cc1ccccc1)NC(=O)[C@@H](NC(=O)CNC(=O)[C@H](Cc1c[nH]cn1)NC(=O)[C@H](CO)NC(=O)[C@@H](N)Cc1ccc(O)cc1)[C@@H](C)O)[C@@H](C)O)C(=O)N[C@@H](CO)C(=O)N[C@@H](CCCCN)C(=O)N[C@@H](Cc1ccc(O)cc1)C(=O)N[C@@H](CC(C)C)C(=O)N[C@@H](CC(=O)O)C(=O)NC(C)(C)C(=O)N[C@@H](CCCCN)C(=O)N[C@@H](Cc1ccc(O)cc1)C(=O)N[C@@H](C)C(=O)N[C@@H](CCC(N)=O)C(=O)N[C@@H](CCC(=O)O)C(=O)N[C@@H](Cc1ccccc1)C(=O)N[C@H](C(=O)NC(C)(C)C(=O)N[C@@H](Cc1c[nH]c2ccccc12)C(=O)N[C@@H](CC(C)C)C(=O)N[C@@H](CCC(=O)O)C(=O)N[C@@H](CC(=O)O)C(=O)N[C@@H](CCC(=O)O)C(=O)N1CCC[C@H]1C(=O)N[C@@H](CO)C(=O)N[C@@H](CO)C(=O)NCC(=O)N[C@@H](C)C(=O)N1CCC[C@H]1C(=O)N1CCC[C@H]1C(=O)N1CCC[C@H]1C(=O)N[C@@H](CO)C(=O)O)C(C)C)C(=O)O [Compound B4] (H-YSHGTFTSDK([γGlu-Palmitoyl])SKYLD[Aib]KYAQEFV[Aib]WLEDEPSSGAPPPS-OH) | > 1000 | 0.794
– | – | CC(C)C[C@H](NC(=O)[C@H](Cc1ccc(O)cc1)NC(=O)[C@H](CCCCN)NC(=O)[C@H](CO)NC(=O)[C@H](Cc1ccc(O)cc1)NC(=O)[C@H](CC(=O)O)NC(=O)[C@H](CO)NC(=O)[C@@H](NC(=O)[C@H](Cc1ccccc1)NC(=O)[C@@H](NC(=O)CNC(=O)[C@H](Cc1c[nH]cn1)NC(=O)[C@H](CO)NC(=O)[C@@H](N)Cc1ccc(O)cc1)[C@@H](C)O)[C@@H](C)O)C(=O)N[C@@H](CC(=O)O)C(=O)NC(C)(C)C(=O)N[C@@H](CCCCN)C(=O)N[C@@H](Cc1ccc(O)cc1)C(=O)N[C@@H](C)C(=O)N[C@@H](CCC(N)=O)C(=O)N[C@@H](CCC(=O)O)C(=O)N[C@@H](Cc1ccccc1)C(=O)N[C@H](C(=O)NC(C)(C)C(=O)N[C@@H](Cc1c[nH]c2ccccc12)C(=O)N[C@@H](CC(C)C)C(=O)N[C@@H](CCC(=O)O)C(=O)N[C@@H](CC(=O)O)C(=O)N[C@@H](CCC(=O)O)C(=O)N1CCC[C@H]1C(=O)N[C@@H](CO)C(=O)N[C@@H](CO)C(=O)N[C@@H](CCCCNC(=O)COCCOCCNC(=O)COCCOCCNC(=O)CC[C@H](NC(=O)CCCCCCCCCCCCCCCCC(=O)O)C(=O)O)C(=O)N[C@@H](C)C(=O)N1CCC[C@H]1C(=O)N1CCC[C@H]1C(=O)N1CCC[C@H]1C(=O)N[C@@H](CO)C(=O)O)C(C)C [Compound B5] | > 1000 | 0.251

Structure (SMILES) | EC50 (human GLP-1R; [1]) [nM] | EC50 (human GCGR; Table 3) [nM] | EC50 (human GLP-1R; [2]) [nM] | EC50 (human GCGR; [3]) [nM]
CC(C)C[C@H](NC(=O)[C@H](Cc1ccc(O)cc1)NC(=O)[C@H](CCCCN)NC(=O)[C@H](CO)NC(=O)[C@H](Cc1ccc(O)cc1)NC(=O)[C@H](CC(=O)O)NC(=O)[C@H](CO)NC(=O)[C@@H](NC(=O)[C@H](Cc1ccccc1)NC(=O)[C@@H](NC(=O)CNC(=O)[C@H](CCC(N)=O)NC(=O)[C@H](CO)NC(=O)[C@@H](N)Cc1c[nH]c2ccccc12)[C@@H](C)O)[C@@H](C)O)C(=O)N[C@@H](CC(=O)O)C(=O)NC(C)(C)C(=O)N[C@@H](CCCCN)C(=O)N[C@@H](C)C(=O)N[C@@H](C)C(=O)N[C@@H](CCC(N)=O)C(=O)N[C@@H](CCC(=O)O)C(=O)N[C@@H](Cc1ccccc1)C(=O)N[C@H](C(=O)NC(C)(C)C(=O)N[C@@H](Cc1c[nH]c2ccccc12)C(=O)N[C@@H](CC(C)C)C(=O)N[C@@H](CCC(=O)O)C(=O)N[C@@H](CC(=O)O)C(=O)N[C@@H](CCC(=O)O)C(=O)N1CCC[C@H]1C(=O)N[C@@H](CO)C(=O)N[C@@H](CO)C(=O)NCC(=O)N[C@@H](C)C(=O)N1CCC[C@H]1C(=O)N1CCC[C@H]1C(=O)N1CCC[C@H]1C(=O)N[C@@H](CO)C(=O)O)C(C)C [Compound A92] (H-WSQGTFTSDYSKYLD[Aib]KAAQEFV[Aib]WLEDEPSSGAPPPS-OH; N-terminus assumed) | > 1 | 0.02 | – | –
